From paper PMC3401513 (Molecular imaging and biology : MIB : the official …, 2012)
Where “and” joins values, the source holds several entries; their conditions need not be identical. Equal entries are not always repeated. Where two headings read alike, the source gives them in different places.

Biological target: integrin αvβ3 (Homo sapiens, UniProt P05106+P06756)
Conditions: for decrease in BpND after blocking with an excess amount of unlabeled RGD peptide: blocked vs unblocked; for tumor washout (time-activity curves): MDA-MB-435 tumor, unblocked
[1] = Blocked: c(RGDyK) injected 10 min before scanning, tumor region, MDA-MB-435 tumor-bearing mice, 60-min dynamic PET, mean ± SD, n = 4/group
[2] = Blocked: c(RGDyK) injected 10 min before scanning, tumor region, MDA-MB-435 tumor-bearing mice, 60-min dynamic PET, three-compartment model fit, mean ± SD, n = 4/group
[3] = MDA-MB-435 tumor-bearing mice, n = 4/group
[4] = 60-min dynamic PET, n = 4/group

integrin αvβ3, sequence (P06756 31-889 limits assumed): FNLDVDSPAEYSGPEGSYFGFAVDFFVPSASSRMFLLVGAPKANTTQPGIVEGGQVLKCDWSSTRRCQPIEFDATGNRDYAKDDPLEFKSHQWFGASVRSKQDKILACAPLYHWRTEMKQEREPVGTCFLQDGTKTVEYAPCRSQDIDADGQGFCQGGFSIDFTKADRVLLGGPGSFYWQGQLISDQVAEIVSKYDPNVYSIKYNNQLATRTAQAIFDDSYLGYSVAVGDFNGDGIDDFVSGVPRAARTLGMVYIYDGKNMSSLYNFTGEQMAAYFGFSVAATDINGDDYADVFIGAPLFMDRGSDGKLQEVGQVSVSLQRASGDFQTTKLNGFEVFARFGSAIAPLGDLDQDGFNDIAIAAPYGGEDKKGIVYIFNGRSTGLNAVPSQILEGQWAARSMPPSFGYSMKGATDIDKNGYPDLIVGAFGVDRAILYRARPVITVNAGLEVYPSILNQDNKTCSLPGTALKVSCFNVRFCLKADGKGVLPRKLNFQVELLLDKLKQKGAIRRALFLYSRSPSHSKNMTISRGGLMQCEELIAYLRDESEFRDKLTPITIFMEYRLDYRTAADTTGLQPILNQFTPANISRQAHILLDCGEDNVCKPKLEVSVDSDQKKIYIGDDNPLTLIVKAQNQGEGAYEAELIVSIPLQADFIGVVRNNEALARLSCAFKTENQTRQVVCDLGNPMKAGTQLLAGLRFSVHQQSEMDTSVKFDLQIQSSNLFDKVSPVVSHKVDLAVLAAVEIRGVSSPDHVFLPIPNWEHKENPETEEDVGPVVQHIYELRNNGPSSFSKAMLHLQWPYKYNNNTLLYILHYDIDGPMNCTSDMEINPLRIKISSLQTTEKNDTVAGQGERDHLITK
integrin αvβ3, sequence (P06756 891-1048 partner limits assumed): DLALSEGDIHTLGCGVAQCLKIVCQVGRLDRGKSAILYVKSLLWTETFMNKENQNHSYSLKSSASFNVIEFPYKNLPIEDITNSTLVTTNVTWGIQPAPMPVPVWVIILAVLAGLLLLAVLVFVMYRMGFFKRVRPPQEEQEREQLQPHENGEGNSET
integrin αvβ3, sequence (P05106 27-788): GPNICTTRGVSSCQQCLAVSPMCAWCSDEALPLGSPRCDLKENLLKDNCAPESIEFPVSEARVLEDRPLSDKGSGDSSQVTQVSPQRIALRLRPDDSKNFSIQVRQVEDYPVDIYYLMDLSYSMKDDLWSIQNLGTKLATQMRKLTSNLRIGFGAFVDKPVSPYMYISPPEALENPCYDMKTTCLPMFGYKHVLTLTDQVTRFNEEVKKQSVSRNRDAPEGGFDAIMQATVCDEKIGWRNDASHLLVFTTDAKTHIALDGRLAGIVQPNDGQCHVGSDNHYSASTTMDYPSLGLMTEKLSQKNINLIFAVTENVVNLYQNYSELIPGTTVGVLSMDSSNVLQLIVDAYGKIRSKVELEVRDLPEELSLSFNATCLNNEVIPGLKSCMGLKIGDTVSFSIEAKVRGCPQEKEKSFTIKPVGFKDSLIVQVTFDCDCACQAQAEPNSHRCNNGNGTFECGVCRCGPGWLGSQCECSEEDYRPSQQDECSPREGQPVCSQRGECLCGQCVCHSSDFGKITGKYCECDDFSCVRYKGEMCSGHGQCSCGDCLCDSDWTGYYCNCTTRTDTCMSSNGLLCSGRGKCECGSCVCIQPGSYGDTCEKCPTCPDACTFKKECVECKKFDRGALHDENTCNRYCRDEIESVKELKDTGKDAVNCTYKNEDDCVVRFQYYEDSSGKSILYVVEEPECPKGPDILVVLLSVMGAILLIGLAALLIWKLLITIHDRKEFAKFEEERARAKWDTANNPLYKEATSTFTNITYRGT

For ^18F-FP-c(RGDyK) [^18F-FPRGD], the “BpND (binding potential = k3/k4)” value [1] was 1.110±0.155, the “k3 (on-rate for specific binding)” value [2] was 0.051 ± 0.016 min⁻¹ and the “BpND (binding potential = k3/k4)” value (Unblock, tumor region, MDA-MB-435 tumor-bearing mice, 60-min dynamic PET, three-compartment model, mean ± SD, n = 4/group, listed as RGD Monomer) was 2.747±0.483. For the same substance, the “decrease in BpND after blocking with an excess amount of unlabeled RGD peptide” value [3] was ~ 60% and the “K1 (transfer from arterial plasma to tissue)” value (mouse, in vivo) was 0.276 ± 0.256 mL/g/min.

For “^18F-FP-PEG3-E[c(RGDyK)]2 [^18F-FPPRGD2]”, the “tumor washout (time-activity curves)” value [4] was “much slower tumor washout”, the “BpND (binding potential = k3/k4)” value [1] was 1.257±0.293 and the “k3 (on-rate for specific binding)” value [2] was 0.064 ± 0.023 min⁻¹. The “k4 (target dissociation rate)” value [2] was 0.050 ± 0.009 min⁻¹, the “BpND (binding potential = k3/k4)” value (Unblock, tumor region, MDA-MB-435 tumor-bearing mice, 60-min dynamic PET, three-compartment model, mean ± SD, n = 4/group, listed as RGD Dimer) was 5.865±0.312 and the “specific bound component (Cm) in the tumor region relative to the monomer” value (at 1-h, separated by model fitting) was “almost twice as much”. The “decrease in BpND after blocking with an excess amount of unlabeled RGD peptide” value [3] was ~ 80% and the “K1 (transfer from arterial plasma to tissue)” value (mouse, in vivo) was 0.082 ± 0.031 mL/g/min.

“^18F-FP-c(RADyK) [^18F-FPRAD, reference compound]” was tested, and the “tumor washout (time-activity curves)” value [4] was “most rapid tumor washout”, the “BpND (binding potential = k3/k4)” value (Unblock, tumor region, MDA-MB-435 tumor-bearing mice, 60-min dynamic PET, three-compartment model, mean ± SD, n = 4/group) was 0.89 ± 0.19 and 0.893±0.192 and the “k2 (clearance from tissue)” value (mouse, in vivo) was 0.334 ± 0.092 min⁻¹.
